Data as given in publication PMC6657668, “Porcine Beta-Defensin 2 Provides Protection Against Bacterial Infection by a Direct Bactericidal Activity and Alleviates Inflammation via Interference With the TLR4/NF-κB Pathway” (Frontiers in Immunology, 2019).
Where a SMILES comes first, the peptide text is derived from it.

Tests used:
[1] = test system: dextran sodium sulfate (DSS) in mice; details: ref [33], cited from earlier work
Description: The antibiotic resistance of pathogenic bacteria has become a global threat ([30]). Defensins are natural peptides secreted by many species and implicated in resisting bacterial infection ([31]). PBD-2 is one of the defensins expressed in pigs. […] The invasion of S. Typhimurium can increase the expression of PBD-2 in porcine epithelial cells ([32]). […] PBD-2 also improves the growth perf ... || The colitis caused by S. Typhimurium mainly results from intestinal mucosal inflammation after the breakage of intestinal epithelial barrier by pathogens ([26]). […] AMPs have various structures which may lead to their different act ...

TLR4 = biological target: T1, TLR4 (Mus musculus, UniProt Q9QUK6); test: Interaction with TLR4, far-Western blot; assay type: binding; details: PBD-2 10 μg/ml, 37°C, 2 h
T1 construct: purchased Cloud-clone, Wuhan, China RPA753Mu01
Experimental: (§1) TLR4 and BSA proteins as a control were subject to SDS-PAGE and electro-transferred onto a PVDF membrane. The PVDF membrane was blocked with 10 μg/ml BSA in PBST at 37°C for 2 h, washed five times with PBST and incubated with PBST that contained 10 μg/ml PBD-2 or 10 μg/ml BSA as a control at 37°C for 2 h. After the membranes were washed, the PVDF membrane was incubated with anti-PBD-2 antisera (with a titer 1:500,000) at 37°C for 2 h and washed five times with PBST. The membrane was then incubated with the secondary antibodies, namely, goat anti-mouse IgG (# AS003, ABclonal®, Wuhan, China), at 37°C for 2 h and washed five times with PBST. Lastly, immune-reactive bands were detected using an ECF Western blot system (Tanon 5200 Multi, Shanghai, China).

BSA = test: Interaction with BSA (control), far-Western blot; assay type: binding, bovine; details: PBD-2 10 μg/ml, 37°C, 2 h
Experimental: as §1

S. Typhimurium [2] = test: Spleen and caecum weight ratios of mice infected with S. Typhimurium; details: PBD-2 expressed in TG mice; oral 2.5 × 10^8 CFU; legend: 24 h post-infection; WT n = 9, TG n = 8
Experimental: (§3) Four infection experiments were conducted to determine the resistance to S. Typhimurium of the TG mice. For body weight measurements, 7 WT and 7 TG mice were orally administered with 2.5 × 10^8 CFU of S. Typhimurium, and the body weight of each mouse was measured on days 1, 2, 3, 4, and 5 after infection. For the detection of the tissue weight ratios, bacterial loads in tissues and tissue lesions after S. Typhimurium infection, 9 WT and 8 TG mice were orally administered with 2.5 × 10^8 CFU of S. Typhimurium. The spleen, caecum and body weights of the mice were weighed at 24 h post-infection. The bacterial loads in the tissues were also measured ([26]). The spleen and caecum were weighed and homogenized in cold PBS at a ratio of 4 ml per gram of tissue and coated plates. The bacterial numbers in the homogenates were counted by serially diluting the homogenates and spreading on plates. Caeca were harvested for histopathological analysis by using the methods described above. The intestinal damage, including epithelial damage, submucosal oedema, and neutrophil aggregation, was observed.

S. Typhimurium [3] = test: Body weight loss of mice infected with S. Typhimurium; details: PBD-2 expressed in TG mice; oral 2.5 × 10^8 CFU; days 1-5; n = 7; vs WT
Experimental: as §3

bacteria = details: ref [11], cited from earlier work
Description: Another fact is that some vi ...

RAW 264.7 cells [4] = test: Cytokine levels of RAW 264.7 cells after treatment with LPS (ELISA), with or without pathway inhibitor; assay type: cell-based, mouse; details: for IL-1β level / IL-6 level / TNF-α level: LPS 1 μg/ml
Experimental: (§2) RAW 264.7 cells and RAW 264.7 cells stably expressing PBD-2 were pre-treated with S. Typhimurium at MOI = 10:1 for 1 h or with LPS (1 μg/ml) for 16 h, washed with PBS twice and incubated with RPMI 1640 that contained PBS or PBD-2 (10 μg/mL) for 16 h. RAW 264.7 cells stably expressing PBD-2 were maintained in RPMI 1640 that contained PBS for 16 h (n = 6 for each group). The expression levels of proinflammatory cytokines in the cell culture supernatant were determined through ELISA in accordance with the manufacturer's instruction.
In the inhibition assay, RAW 264.7 cells were pre-treated with 4 μg/ml NF-κB inhibitor (Celastrol, # ant-cls, InvivoGen®, San Diego, CA, USA) or 1 μg/ml TLR4 inhibitor (CLI-095, # tlrl-cli95, InvivoGen®, San Diego, CA, USA) for 1 h. Subsequently, RAW 264.7 cells were treated with LPS (1 μg/ml) alone or together with PBD-2 (10 μg/mL) for 16 h (n = 6 each group). RAW 264.7 cells treated with PBS were used as control. The levels of the cytokines in the supernatant of the cells were detected through ELISA.

[5] = ref [11]; cited from earlier work
RAW 264.7 cells [6] = test: Cytokine levels of RAW 264.7 cells after treatment with S. Typhimurium (ELISA); assay type: cell-based, mouse; details: S. Typhimurium MOI = 10:1, 1 h, n = 6
Experimental: as §2

S. Typhimurium [7] = test: Histopathology of caecum of mice infected with S. Typhimurium; details: PBD-2 expressed in TG mice; oral 2.5 × 10^8 CFU; 24 h post-infection; H&E; vs WT
Experimental: as §3

[8] = PBD-2 expressed by RAW 264.7–PBD-2 cells, n = 6
[9] = synthetic PBD-2 10 μg/mL with LPS 1 μg/ml, 16 h, after CLI-095 1 μg/ml, n = 6
[10] = synthetic PBD-2 10 μg/mL with LPS 1 μg/ml, 16 h, after Celastrol 4 μg/ml, n = 6
[11] = synthetic PBD-2 10 μg/mL, 16 h, n = 6
[12] = PBD-2 expressed by RAW 264.7–PBD-2 cells

T1 sequence (Q9QUK6 26-835): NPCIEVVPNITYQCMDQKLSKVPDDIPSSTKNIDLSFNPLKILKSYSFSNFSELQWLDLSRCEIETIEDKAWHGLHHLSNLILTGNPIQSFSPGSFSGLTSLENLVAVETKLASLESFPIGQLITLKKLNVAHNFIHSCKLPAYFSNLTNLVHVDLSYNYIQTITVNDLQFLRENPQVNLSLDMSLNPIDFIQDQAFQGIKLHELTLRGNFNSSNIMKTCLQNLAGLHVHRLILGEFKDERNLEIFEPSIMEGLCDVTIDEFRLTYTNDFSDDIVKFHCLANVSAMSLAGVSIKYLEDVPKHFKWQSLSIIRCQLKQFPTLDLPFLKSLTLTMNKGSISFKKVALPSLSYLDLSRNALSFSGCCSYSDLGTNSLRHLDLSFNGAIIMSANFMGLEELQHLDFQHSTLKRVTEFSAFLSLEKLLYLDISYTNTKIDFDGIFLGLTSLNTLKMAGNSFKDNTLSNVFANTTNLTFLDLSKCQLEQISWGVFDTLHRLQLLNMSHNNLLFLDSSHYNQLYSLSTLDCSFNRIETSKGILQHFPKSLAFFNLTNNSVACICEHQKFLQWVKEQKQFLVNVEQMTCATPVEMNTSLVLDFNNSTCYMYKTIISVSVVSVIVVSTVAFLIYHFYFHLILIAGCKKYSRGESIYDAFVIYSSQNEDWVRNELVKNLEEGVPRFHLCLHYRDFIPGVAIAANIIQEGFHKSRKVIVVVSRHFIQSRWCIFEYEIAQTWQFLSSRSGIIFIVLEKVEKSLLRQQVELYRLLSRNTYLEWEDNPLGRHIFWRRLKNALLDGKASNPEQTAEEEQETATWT

CC[C@H](C)[C@H](NC(=O)[C@@H]1CSSC[C@@H]2NC(=O)[C@@H]3CCCN3C(=O)[C@H](CO)NC(=O)[C@H](Cc3ccccc3)NC(=O)[C@H](CC(N)=O)NC(=O)[C@@H]3CSSC[C@H](NC(=O)[C@H]([C@@H](C)O)NC(=O)CNC(=O)[C@H](CCC(=O)O)NC(=O)[C@H]([C@@H](C)CC)NC(=O)[C@H](CCCNC(=N)N)NC(=O)[C@H](CC(N)=O)NC(=O)[C@H](Cc4ccccc4)NC(=O)[C@H](CC(C)C)NC(=O)[C@@H]4CCCN4C2=O)C(=O)N[C@@H](Cc2ccc(O)cc2)C(=O)N[C@@H](CO)C(=O)NCC(=O)N[C@@H](CCCCN)C(=O)N[C@@H](C)C(=O)N[C@@H](CCCCN)C(=O)N[C@@H](CSSC[C@H](NC(=O)[C@@H](NC(=O)[C@H](Cc2ccc(O)cc2)NC(=O)[C@H](Cc2c[nH]cn2)NC(=O)[C@@H](N)CC(=O)O)[C@@H](C)CC)C(=O)N[C@@H](C)C(=O)N[C@@H](CCCCN)C(=O)N[C@@H](CCCCN)C(=O)NCC(=O)NCC(=O)N[C@@H]([C@@H](C)O)C(=O)N3)C(=O)N1)C(=O)N[C@@H](CCCNC(=N)N)C(=O)O [PBD-2, Porcine beta-defensin 2] (HELM PEPTIDE1{D.H.Y.I.C.A.K.K.G.G.T.C.N.F.S.P.C.P.L.F.N.R.I.E.G.T.C.Y.S.G.K.A.K.C.C.I.R}$PEPTIDE1,PEPTIDE1,5:R3-34:R3|PEPTIDE1,PEPTIDE1,12:R3-27:R3|PEPTIDE1,PEPTIDE1,17:R3-35:R3$$$V2.0; N-terminus and C-terminus assumed)
mucosal damage caused by DSS ([1]; mice): alleviate mucosal damage caused by dextran sodium sulfate (DSS) in mice
DSS-induced inflammation, NF-κB signaling [1]: suppresses the DSS-induced inflammation by suppressing the NF-κB signaling pathway
inflammation in DSS-induced colitis [1]: attenuates inflammation in DSS-induced colitis
binding to TLR4 on PVDF membrane (TLR4): could bind to TLR4
binding to BSA on PVDF membrane (BSA): not to BSA
caecum weight ratio (organ weight/body weight), caecal enlargement (S. Typhimurium [2]): the WT mice exhibited more severe splenic atrophy and caecal enlargement compared with the TG mice on day 2 post-infection (p < 0.05)
spleen weight ratio (organ weight/body weight), splenic atrophy (S. Typhimurium [2]): the WT mice exhibited more severe splenic atrophy and caecal enlargement compared with the TG mice on day 2 post-infection (p < 0.05)
body weight loss (S. Typhimurium [3]): less degree of body weight loss from day 2 onwards (p < 0.05)
antibacterial activity, concentration dependence (bacteria; in vitro): positively related to its concentration
bactericidal activity in vitro (bacteria): high and broad spectrum of bactericidal activity in vitro
IL-1β level (RAW 264.7 cells [4]; [8]): significantly reduced in RAW 264.7 cells supplemented with PBD-2 or in the RAW 264.7–PBD-2 cells (p < 0.05)
IL-6 level (RAW 264.7 cells [4]; [8]): significantly reduced in RAW 264.7 cells supplemented with PBD-2 or in the RAW 264.7–PBD-2 cells (p < 0.05)
TNF-α level (RAW 264.7 cells [4]; [8]): significantly reduced in RAW 264.7 cells supplemented with PBD-2 or in the RAW 264.7–PBD-2 cells (p < 0.05)
cytokine secretion, PBD-2 itself (RAW 264.7 cells [4]; PBD-2 without stimulus (Figures 5A–C)): did not affect cytokine secretion
inflammatory responses of RAW 264.7 cells expressing PBD-2 versus supplemented with synthetic PBD-2 (RAW 264.7 cells [4]; S. Typhimurium or LPS (Figures 5A–C)): lower than those of the cells supplemented with synthetic PBD-2
secretion of IL-1β in the presence of TLR4 inhibitor (RAW 264.7 cells [4]; [9]): did not affect the secretion of these cytokines in the presence of TLR4 inhibitor (NS, p > 0.05)
secretion of IL-6 in the presence of TLR4 inhibitor (RAW 264.7 cells [4]; [9]): did not affect the secretion of these cytokines in the presence of TLR4 inhibitor (NS, p > 0.05)
secretion of TNF-α in the presence of TLR4 inhibitor (RAW 264.7 cells [4]; [9]): did not affect the secretion of these cytokines in the presence of TLR4 inhibitor (NS, p > 0.05)
secretion of IL-1β in the presence of NF-κB inhibitor (RAW 264.7 cells [4]; [10]): did not affect the secretion of these cytokines in the presence of NF-κB inhibitor (NS, p > 0.05)
secretion of IL-6 in the presence of NF-κB inhibitor (RAW 264.7 cells [4]; [10]): did not affect the secretion of these cytokines in the presence of NF-κB inhibitor (NS, p > 0.05)
secretion of TNF-α in the presence of NF-κB inhibitor (RAW 264.7 cells [4]; [10]): did not affect the secretion of these cytokines in the presence of NF-κB inhibitor (NS, p > 0.05)
IL-1β level (RAW 264.7 cells [4]; [11]): significantly reduced in RAW 264.7 cells supplemented with PBD-2 or in the RAW 264.7–PBD-2 cells (p < 0.05)
IL-6 level (RAW 264.7 cells [4]; [11]): significantly reduced in RAW 264.7 cells supplemented with PBD-2 or in the RAW 264.7–PBD-2 cells (p < 0.05)
TNF-α level (RAW 264.7 cells [4]; [11]): significantly reduced in RAW 264.7 cells supplemented with PBD-2 or in the RAW 264.7–PBD-2 cells (p < 0.05)
hemolytic activity [5]: limited hemolytic activity
level of IL-1β (RAW 264.7 cells [6]; [12]): significantly lower in the RAW 264.7–PBD-2 cells than in the RAW 264.7 cells after S. Typhimurium treatment (p < 0.01)
level of IL-6 (RAW 264.7 cells [6]; [12]): significantly lower in the RAW 264.7–PBD-2 cells than in the RAW 264.7 cells after S. Typhimurium treatment (p < 0.01)
level of TNF-α (RAW 264.7 cells [6]; [12]): significantly lower in the RAW 264.7–PBD-2 cells than in the RAW 264.7 cells after S. Typhimurium treatment (p < 0.01)
secretion of IL-1β (RAW 264.7 cells [6]; synthetic PBD-2 10 μg/mL, 16 h): significantly inhibited the secretion of TNF-α, IL-6, and IL-1β after S. Typhimurium treatment (p < 0.05)
secretion of IL-6 (RAW 264.7 cells [6]; synthetic PBD-2 10 μg/mL, 16 h): significantly inhibited the secretion of TNF-α, IL-6, and IL-1β after S. Typhimurium treatment (p < 0.05)
secretion of TNF-α (RAW 264.7 cells [6]; synthetic PBD-2 10 μg/mL, 16 h): significantly inhibited the secretion of TNF-α, IL-6, and IL-1β after S. Typhimurium treatment (p < 0.05)
intestinal damage of the caecum (epithelial damage and submucosal oedema) (S. Typhimurium [7]): significantly milder intestinal damage (epithelial damage and submucosal oedema)
neutrophil aggregation in the caecum (S. Typhimurium [7]): less neutrophil aggregation compared with that of the WT mice
